Results reported in patent US20030134859A1 (SANKYO COMPANY, LIMITED, priority 2000, published 2003).

Legend:
[1] = test system: Mouse preadipocyte strain 3T3-L1; assay: Inhibition of differentiation as an indication of acetic acid uptake; format: cell-based; details: control (0.01% dimethylsulfoxide) = 100%; for activity at 0.1 µM: Mus musculus, 3T3-L1, 0.1 μM test substance, read-out: Rate of Uptake (%) of [2-14C] acetic acid
Method in brief: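 Confluent 3T3-L1 cells induced to differentiate for 4 days (insulin, IBMX, dexamethasone, 5% FBS) with test compound at 0.1 μM final or 0.01% DMSO, then 2 days in insulin maintenance medium, at 37 °C, 10% CO2. [2-14C]acetic acid uptake over 1 hr counted by scintillation; expressed as % of DMSO control.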

[2] = test system: human colon cancer cells COL-2-JCK; assay: Inhibition of colony forming activity in human colon cancer cells; format: cell-based; details: 1 μM test compound, 10 days, sum of colony areas vs control; for inhibition at 1 µM: Homo sapiens, 240 h, read-out: Inhibition Rate (%) against the colony forming activity
Method: For the medium to culture the human colon cancer cells, D-MEM/F-12 medium containing inactivated bovine fetal serum at a concentration of 10% (GIBCO) was used. The human colon cancer cells COL-2-JCK (purchased from Institute for Experimental Animals) grown in mass formation in a plastic dish for the cell culture with an inner diameter of 100 mm were stripped off from the dish by using EDTA (ethylenediaminetetraacetic acid) and 0.05% trypsin solution. Then, a cell dilution solution was prepared at a concentration of 100 cells/mL solution which was diluted with the medium (D-MEM/F-12).
Three (3) mL of the cell solution were inoculated in each well of a 6-well plastic plate (300 cells/well). The test compound that was dissolved in DMSO solution so as to be a final concentration of 1 μM of the test compound and that of DMSO solution of 0.1% was added to each well. DMSO solution alone was added into the well for the control so as to be a final concentration of 0.1%.
The cells in each well were cultured for 10 days at 37° C. in the presence of 5% CO2. After the culturing was finalised, each well was washed once with Dulbecco-phosphate-buffer-saline solution (bivalent anion). Then, 1.5 ml of neutral buffered formalin solution containing 0.02% crystal violet was added to each well and the plate was kept stationary for 5 min for fixation and staining the cells. After fixation and staining, the cells were washed with water and were air-dried. Then the sum of the colony area (mm^2) of the stained cancer cells was calculated by using an image analyzer PCA-11 (SystemScience). From the calculated values, the inhibition rate (%) of the compound against the colony forming activity was obtained based on the following equation.
Inhibition Rate (%) against the colony forming activity=(1−A/B)×100
A: Sum of Colony Areas in the Group Treated with 1 μM of the Test Compound
B: Sum of Colony Areas in the Control Group

SMILES | activity at 0.1 µM [1] | inhibition at 1 µM [2] | other results
Cc1ccc(NC(=O)c2cc([N+](=O)[O-])ccc2Cl)cc1 [Example 1, N-(4-Methylphenyl)-(2-chloro-5-nitrophenyl)carboxamide] | 64% |  | 
O=C(Nc1ccc(-c2ccccc2)cc1)c1cc([N+](=O)[O-])ccc1Cl [Example 2, N-(4-Phenylphenyl)-(2-chloro-5-nitrophenyl)carboxamide] | 42.7% | 8% | 
Cc1cnc(NC(=O)c2cc([N+](=O)[O-])ccc2Cl)s1 [Example 4, N-(5-Methylthiazol-2-yl)-(2-chloro-5-nitrophenyl)carboxamide] | 92.5% | 62% | 
O=C(Nc1cccc(-c2ccccc2)c1)c1cc([N+](=O)[O-])ccc1Cl [Example 5, N-(3-Phenylphenyl)-(2-chloro-5-nitrophenyl)carboxamide] | 43.4% | 26% | 
COc1ccc(NC(=O)c2cc([N+](=O)[O-])ccc2Cl)cc1-c1ccccc1 [Example 6, N-(4-Methoxy-3-phenyl)phenyl-(2-chloro-5-nitrophenyl)carboxamide] | 55.8% | 22% | 
O=C(Nc1ccccc1-c1ccccc1)c1cc([N+](=O)[O-])ccc1Cl [Example 7, N-(2-Phenylphenyl)-(2-chloro-5-nitrophenyl)carboxamide] | 65% | 24% | 
O=C(Nc1ccc(-c2ccccn2)cc1)c1cc([N+](=O)[O-])ccc1Cl [Example 8, N-[4-(2-Pyridyl)phenyl]-(2-chloro-5-nitrophenyl)carboxamide] |  |  | Rate of Uptake (%) of [2-14C] acetic acid ([1]; 0.1 μM test substance): 47.2%
Cc1ccc2nc(-c3ccc(NC(=O)c4cc([N+](=O)[O-])ccc4Cl)cc3)sc2c1 [Example 10, N-[4-(6-Methylbenzothiazol-2-yl)phenyl]-(2-chloro-5-nitrophenyl)carboxamide] | 85.3% |  | 
CCCCCc1ccc(NC(=O)c2cc([N+](=O)[O-])ccc2Cl)cc1 [Example 16, N-(4-Pentylphenyl)-(2-chloro-5-nitrophenyl)carboxamide] | 83.7% | 48% | 
N#Cc1ccc(NC(=O)c2cc([N+](=O)[O-])ccc2Cl)cc1 [Example 20, N-(4-Cyanophenyl)-(2-chloro-5-nitrophenyl)carboxamide] | 65.9% | 37% | 
CCOC(=O)c1ccc(NC(=O)c2cc([N+](=O)[O-])ccc2Cl)cc1 [Example 26, N-(4-Ethoxycarbonylphenyl)-(2-chloro-5-nitrophenyl)carboxamide] | 87.5% |  | 
CC(C)(C)c1cc(NC(=O)c2cc([N+](=O)[O-])ccc2Cl)cc(C(C)(C)C)c1O [Example 29, N-(3,5-Di-t-butyl-4-hydroxyphenyl)-(2-chloro-5-nitrophenyl)carboxamide] | 68.6% | 41% | 
O=C(Nc1cccc(NS(=O)(=O)c2ccccc2)c1)c1cc([N+](=O)[O-])ccc1Cl [Example 30, N-(3-Benzensulfonylaminophenyl)-(2-chloro-5-nitrophenyl)carboxamide] | 60.1% | 42% | 
O=C(Nc1nc(-c2ccccc2)cs1)c1cc([N+](=O)[O-])ccc1Cl [Example 35, N-(4-Phenylthiazol-2-yl)-(2-chloro-5-nitrophenyl)carboxamide] | 71.5% | 15% | 
O=C(Nc1nc(-c2cccnc2)cs1)c1cc([N+](=O)[O-])ccc1Cl [Example 37, N-[4-(3-Pyridyl)thiazol-2-yl)-(2-chloro-5-nitrophenyl)carboxamide] | 38.6% | 52% | 
O=C(Nc1nc(-c2ccccn2)cs1)c1cc([N+](=O)[O-])ccc1Cl [Example 38, N-[4-(2-Pyridyl)thiazol-2-yl)-(2-chloro-5-nitrophenyl)carboxamide] | 82% | 99.9% | 
Cc1ccc(-c2nc(NC(=O)c3cc([N+](=O)[O-])ccc3Cl)sc2C)cc1Cl [Example 46, N-[4-(3-Chloro-4-methylphenyl)-5-methylthiazol-2-yl]-(2-chloro-5-nitrophenyl)carboxamide] | 67% |  | 
O=C(Nc1cccnc1)c1cc([N+](=O)[O-])ccc1Cl [Example 50, N-(3-Pyridyl)-(2-chloro-5-nitrophenyl)carboxamide] | 61.4% |  | 

SMILES | activity at 0.1 µM [1] | inhibition at 1 µM [2] | other results
O=C(Nc1ccc2c3c(cccc13)CC2)c1cc([N+](=O)[O-])ccc1Cl [Example 54, N-(Acenaphthen-5-yl)-(2-chloro-5-nitrophenyl)carboxamide] | 51.3% |  | 
Cc1ccnc(NC(=O)c2cc([N+](=O)[O-])ccc2Cl)n1 [Example 65, N-(4-Methylpyrimidin-2-yl)-(2-chloro-5-nitrophenyl)carboxamide] | 63.4% |  | 
COC(=O)c1sccc1NC(=O)c1cc([N+](=O)[O-])ccc1Cl [Example 66, N-(2-Methoxycarbonylthiophen-3-yl)-(2-chloro-5-nitrophenyl)carboxamide] | 70.7% |  | 
Cc1cc(Cl)nc(NC(=O)c2cc([N+](=O)[O-])ccc2Cl)n1 [Example 78, N-(4-Chloro-6-methylpyrimidin-2-yl)-(2-chloro-5-nitrophenyl)carboxamide] | 68.2% |  | 
Cn1c(NC(=O)c2cc([N+](=O)[O-])ccc2Cl)nc2ccccc21 [Example 82, N-(1-Methylbenzimidazol-2-yl)-(2-chloro-5-nitrophenyl)carboxamide] | 83% |  | 
O=C(Nc1nncs1)c1cc([N+](=O)[O-])ccc1Cl [Example 85, N-(1,3,4-Thiadiazol-2-yl)-(2-chloro-5-nitrophenyl)carboxamide] | 67.1% |  | 
O=C(Nc1cccc2nsnc12)c1cc([N+](=O)[O-])ccc1Cl [Example 86, N-(2,1,3-Benzothiazol-4-yl)-(2-chloro-5-nitrophenyl)carboxamide] | 51.7% |  | 
CC(C)(C)OC(=O)Nc1ccc(-c2ccc(NC(=O)c3cc([N+](=O)[O-])ccc3Cl)cc2)cc1 [Example 87, N-[4-[4-(tert-Butoxycarbonylamino)phenyl]phenyl]-(2-chloro-5-nitrophenyl)carboxamide] | 57.1% |  | 
Cc1cc(NS(=O)(=O)c2ccc(NC(=O)c3cc([N+](=O)[O-])ccc3Cl)cc2)no1 [Example 99] |  |  | Inhibition Rate (%) against the colony forming activity [2]: 32.0%
COc1cnc(NS(=O)(=O)c2ccc(NC(=O)c3cc([N+](=O)[O-])ccc3Cl)cc2)nc1 [Example 105, N-[4-[(5-Methoxypyrimidin-2-yl)aminosulfonyl]phenyl]-(2-chloro-5-nitrophenyl)carboxamide] | 89.4% |  | 
N=C(N)NS(=O)(=O)c1ccc(NC(=O)c2cc([N+](=O)[O-])ccc2Cl)cc1 [Example 106, N-[4-(Amidinoaminosulfonyl)phenyl]-(2-chloro-5-nitrophenyl)carboxamide] | 82% |  | 
O=C(Nc1ccc(S(=O)(=O)Nc2ccnn2-c2ccccc2)cc1)c1cc([N+](=O)[O-])ccc1Cl [Example 108, N-[4-[(2-Phenyl-(2H)-pyrazol-3-yl)aminosulfonyl]phenyl]-(2-chloro-5-nitrophenyl)carboxamide] | 87.7% |  | 
O=C(Nc1nnc(-c2ccccc2)s1)c1cc([N+](=O)[O-])ccc1Cl [Example 110, N-(5-Phenyl-[1,3,4]thiadiazol-2-yl)-(2-chloro-5—nitrophenyl)carboxamide] | 84.6% |  | 
O=C(Nc1nc(-c2ccc(F)c(F)c2)cs1)c1cc([N+](=O)[O-])ccc1Cl [Example 111, N-[4-(3,4-Difluorophenyl)thiazol-2-yl]-(2-chloro-5-nitrophenyl)carboxamide] | 61.2% |  | 
Cc1ccc(S(=O)(=O)Nc2ccc(NC(=O)c3cc([N+](=O)[O-])ccc3Cl)cc2)cc1 [Example 116, N-[4-(4-Toluenesulfonylamino)phenyl]-(2-chloro-5-nitrophenyl)carboxamide] | 95.1% |  | 
CC(=O)Nc1ccc(NC(=O)c2cc([N+](=O)[O-])ccc2Cl)cc1 [Example 117, N-(4-Acetylaminophenyl)-(2-chloro-5-nitrophenyl)carboxamide] | 87% |  | 
O=C(Nc1ccc(NC(=O)c2cc([N+](=O)[O-])ccc2Cl)cc1)c1ccccc1 [Example 119, N-(4-Benzoylaminophenyl)-(2-chloro-5-nitrophenyl)carboxamide] | 65.7% |  | 
O=C(Nc1ccc(S(=O)(=O)Nc2cccnc2)cc1)c1cc([N+](=O)[O-])ccc1Cl [Example 178] | 66.2% |  | 
